# Measurements published in patent US7166614B2, “Tetrahydropyranyl cyclopentyl tetrahydroisoquinoline modulators of chemokine receptor activity” (Merck & Co., Inc., priority 2002, dated 2007).
# What was measured:
# CCR-2 receptor = target: T1, CCR-2 receptor (Homo sapiens, UniProt P41597); assay: CCR-2 binding assay (inhibition of 125I-MCP-1 binding); conditions: cis isomer compared with trans isomer, resolved on preparation plate; assay not specified
# T1 construct: the endogenous CCR-2 receptor on various cell types including monocytes, THP-1 cells; endogenous in cells; host or cells: monocytes, THP-1 cells (or eukaryotic cells expressing the cloned receptor)
# Procedure: Receptor affinity in a CCR-2 binding assay was determined by measuring inhibition of ^125I-MCP-1 to the endogenous CCR-2 receptor on various cell types including monocytes, THP-1 cells, or after heterologous expression of the cloned receptor in eukaryotic cells. The cells were suspended in binding buffer (50 mM HEPES, pH 7.2,5 mM MgCl2, 1 mM CaCl2, and 0.50% BSA) with and added to test compound or DMSO and ^125I-MCP-1 at room temperature for 1 h to allow binding. The cells were then collected on GFB filters, washed with 25 mM HEPES buffer containing 500 mM NaCl and cell bound ^125I-MCP-1 was quantified.
# [1] = Storage stability at room temperature (air oxidation, LC-MS); type: physicochemical; conditions: stored in a scintillation vial at room temperature for three months; degradation by air oxidation; separation by reverse phase HPLC
# Procedure: Separation by Gilson reverse phase HPLC provided two new products (Example 114 and 115) and 60% of the parent compound recovered. These compounds were analyzed by NMR and LC-MS to determine the structures.
# T1 sequence (P41597 whole entry): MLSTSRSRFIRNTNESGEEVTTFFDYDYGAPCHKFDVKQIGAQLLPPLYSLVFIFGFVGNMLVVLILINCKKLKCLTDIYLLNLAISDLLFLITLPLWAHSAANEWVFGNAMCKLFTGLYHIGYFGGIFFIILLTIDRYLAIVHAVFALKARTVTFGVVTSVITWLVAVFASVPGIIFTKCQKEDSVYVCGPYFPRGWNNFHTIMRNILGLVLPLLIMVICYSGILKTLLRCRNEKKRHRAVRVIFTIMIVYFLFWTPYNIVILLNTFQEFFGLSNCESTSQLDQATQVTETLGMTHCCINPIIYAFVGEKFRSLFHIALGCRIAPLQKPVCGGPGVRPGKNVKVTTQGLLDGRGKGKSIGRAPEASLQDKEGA
SMILES,relative activity of cis vs trans isomer (CCR-2 receptor),parent compound recovered after storage [1] [%]
CSC1(C(=O)N2CCc3ccc(C(F)(F)F)cc3C2)CC[C@@H](NC2CCOCC2)C1 (some centres unmarked) [Example 3],more active,–
CC(C)[C@]1(C(=O)N2CCc3ccc(C(F)(F)F)cc3C2)CC[C@@H](NC2CCOCC2F)C1 (some centres unmarked) [Example 96],–,60
